Measured values: the NIST ThermoML archive (doi:10.1016/j.jct.2012.05.015)
“And” between values parts separate entries of the source, which are not always exact repeats. Equal values may be shown once. Numbers after ± are expanded uncertainties.

Settings: Liquid, Calculated from knudsen effusion weight loss

Nc1ccnc(N)n1 [2,4-pyrimidinediamine]
Settings | vapor or sublimation pressure
335.12 K | 7.78e-05 ± 3.9e-06 kPa and 7.75e-05 ± 3.9e-06 kPa and 7.72e-05 ± 3.9e-06 kPa
338.18 K | 0.000109 ± 5e-06 kPa and 0.00011 ± 6e-06 kPa and 0.000105 ± 5e-06 kPa
341.17 K | 0.00015 ± 8e-06 kPa and 0.000145 ± 7e-06 kPa and 0.000141 ± 7e-06 kPa
344.12 K | 0.000208 ± 1e-05 kPa and 0.000202 ± 1e-05 kPa and 0.000212 ± 1.1e-05 kPa
347.17 K | 0.000291 ± 1.5e-05 kPa and 0.000283 ± 1.4e-05 kPa and 0.000274 ± 1.4e-05 kPa
350.17 K | 0.000391 ± 2e-05 kPa and 0.000378 ± 1.9e-05 kPa
353.12 K | 0.000554 ± 2.8e-05 kPa and 0.000535 ± 2.7e-05 kPa and 0.000532 ± 2.7e-05 kPa
356.18 K | 0.00074 ± 3.7e-05 kPa and 0.000736 ± 3.7e-05 kPa and 0.000697 ± 3.5e-05 kPa
359.16 K | 0.000989 ± 4.9e-05 kPa and 0.000945 ± 4.7e-05 kPa and 0.000904 ± 4.5e-05 kPa

Nc1cc(N)nc(N)n1 [2,4,6-pyrimidinetriamine]
Settings | vapor or sublimation pressure
391.14 K | 7.42e-05 ± 3.7e-06 kPa and 7.31e-05 ± 3.7e-06 kPa and 7.14e-05 ± 3.6e-06 kPa
393.15 K | 9.48e-05 ± 4.8e-06 kPa and 8.89e-05 ± 4.5e-06 kPa and 8.51e-05 ± 4.3e-06 kPa
395.15 K | 0.00011 ± 6e-06 kPa and 0.000107 ± 5e-06 kPa and 0.0001 ± 5e-06 kPa
397.13 K | 0.000131 ± 7e-06 kPa and 0.000124 ± 6e-06 kPa and 0.000141 ± 7e-06 kPa
399.13 K | 0.000167 ± 8e-06 kPa and 0.000166 ± 8e-06 kPa and 0.000148 ± 7e-06 kPa
401.15 K | 0.0002 ± 1e-05 kPa and 0.000188 ± 9e-06 kPa and 0.000186 ± 9e-06 kPa
403.15 K | 0.000247 ± 1.2e-05 kPa and 0.000237 ± 1.2e-05 kPa and 0.000215 ± 1.1e-05 kPa
405.15 K | 0.000292 ± 1.5e-05 kPa and 0.000287 ± 1.4e-05 kPa and 0.000258 ± 1.3e-05 kPa
407.15 K | 0.000345 ± 1.7e-05 kPa and 0.000316 ± 1.6e-05 kPa and 0.000319 ± 1.6e-05 kPa
409.12 K | 0.000393 ± 2e-05 kPa and 0.000407 ± 2e-05 kPa and 0.000375 ± 1.9e-05 kPa
411.12 K | 0.000484 ± 2.4e-05 kPa and 0.000487 ± 2.4e-05 kPa and 0.000439 ± 2.2e-05 kPa
413.15 K | 0.000593 ± 3e-05 kPa and 0.00054 ± 2.7e-05 kPa and 0.000536 ± 2.7e-05 kPa
